Here are results for 34 compounds from patent US11072617B2, “Bicyclic sulfones and sulfoxides and methods of use thereof” (Genentech, Inc., priority 2017, dated 2021).

This experiment addresses human RIP1 kinase domain (2-375) (Homo sapiens (Human), UniProt Q13546). The experiment can be described thus: RIP1 kinase inhibition biochemical assay (Transcreener ADP, fluorescence polarization). The following applies: Ki app from tight-binding Morrison equation; 50 nM enzyme, 50 uM ATP, 2 hours incubation. In short, it runs like this: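 Baculovirus-expressed human RIP1 kinase domain (2-375), 50 nM, incubated 2 h with compounds in pH 7.5 Hepes, 30 mM MgCl2, 50 uM ATP, 0.5% DMSO. ADP detected by Transcreener fluorescence-polarization tracer displacement; Ki^app from Morrison tight-binding fit.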

Sequence of human RIP1 kinase domain (2-375) (Q13546 2-375): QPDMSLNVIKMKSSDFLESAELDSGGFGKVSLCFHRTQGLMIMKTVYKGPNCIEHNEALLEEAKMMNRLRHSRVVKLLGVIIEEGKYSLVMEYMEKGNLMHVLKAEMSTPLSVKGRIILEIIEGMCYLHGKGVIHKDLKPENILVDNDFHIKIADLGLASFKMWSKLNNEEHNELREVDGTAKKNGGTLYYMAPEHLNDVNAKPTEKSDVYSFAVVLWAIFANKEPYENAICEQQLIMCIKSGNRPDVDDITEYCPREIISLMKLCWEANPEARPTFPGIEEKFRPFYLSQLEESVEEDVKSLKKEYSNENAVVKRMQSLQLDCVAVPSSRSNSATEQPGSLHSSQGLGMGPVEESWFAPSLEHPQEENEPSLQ

On to `O=S(=O)(CC(F)(F)F)c1nc2n(n1)[C@H](c1ccccc1)C[C@@H]2F` (single isomer, unassigned) [Example 114], for which the Ki turned out to be 71 nM. The result for `O=S(=O)(c1nc2n(n1)[C@H](c1ccccc1Cl)C[C@@H]2F)[C@H]1CC1(F)F` (single isomer, unassigned) [Example 120] reads less than 5 nM; that for `O=S(=O)(c1nc2n(n1)[C@H](c1cccc(F)c1Cl)C[C@@H]2F)C1CC1` (single isomer, unassigned) [Example 45], less than 5 nM; that for `O=S(=O)(c1nc2n(n1)C(c1ccccc1)CC2)C(F)F` (racemic) [Example 6], 101 nM.

The compound `O=S(=O)(c1nc2n(n1)[C@H](c1ccc(F)c(F)c1)C[C@@H]2F)[C@H]1C[C@@H]1F` (single isomer, unassigned) [Example 143] displayed a Ki of 31 nM.

As to `N#CC[S@+]([O-])c1nc2n(n1)[C@@H](c1ccccc1Cl)C[C@H]2F` (single isomer, unassigned) [Example 101], the Ki was 47 nM. For `[O-][S@+](CC1CC1)c1nc2n(n1)[C@H](c1ccccc1)C[C@@H]2F` (single isomer, unassigned) [Example 184], the Ki was 130 nM. For `CC[S@+]([O-])c1nc2n(n1)[C@H](c1ccccc1)C[C@@H]2F` (single isomer, unassigned) [Example 190], the Ki was determined as 8 nM. The result for `O=S(=O)(c1nc2n(n1)[C@H](c1c(F)ccc(F)c1F)C[C@@H]2F)C1CC1` (single isomer, unassigned) [Example 38] reads 10 nM; that for `[O-][S+](c1nc2n(n1)[C@H](c1ccccc1)C[C@@H]2F)C1CC1` (stereo partly drawn) [Example 27, (5S,7S)-2-cyclopropylsulfinyl-7-fluoro-5-phenyl-6,7-dihydro-5H-pyrrolo[1,2-b][1,2,4]triazole], 33 nM. Take `O=S(=O)(c1nc2n(n1)[C@H](c1ccccc1)C[C@@H]2F)[C@@H]1CCC1(F)F` [Example 171, (5S,7S)-7-fluoro-5-phenyl-2-[(1R)-2,2-difluorocyclobutyl]sulfonyl-6,7-dihydro-5H-pyrrolo[1,2-b][1,2,4]triazole]: the Ki is less than 5 nM. The compound `O=S(=O)(c1nc2n(n1)[C@H](c1ccc(F)c(F)c1)C[C@@H]2F)C1CC1` (single isomer, unassigned) [Example 44] displayed a Ki of 21 nM. Turning to `[O-][S+](CC1CC1)c1nc2n(n1)[C@H](c1ccccc1)C[C@@H]2F` (stereo partly drawn) [Example 111, (5S,7S)-2-(cyclopropylmethylsulfinyl)-7-fluoro-5-phenyl-6,7-dihydro-5H-pyrrolo[1,2-b][1,2,4]triazole], the Ki is 44 nM.

As for `C[S+]([O-])c1nc2n(n1)[C@H](c1ccccc1)C[C@@H]2F` (stereo partly drawn) [Example 105, (5S,7S)-7-fluoro-2-methylsulfinyl-5-phenyl-6,7-dihydro-5H-pyrrolo[1,2-b][1,2,4]triazole], the Ki was 46 nM. The compound `CC1(S(=O)(=O)c2nc3n(n2)[C@H](c2ccccc2)C[C@@H]3F)CC1` (single isomer, unassigned) [Example 150] returned a Ki of 21 nM.

Compound `N#CC[S@+]([O-])c1nc2n(n1)[C@H](c1ccccc1Cl)C[C@@H]2F` (single isomer, unassigned) [Example 93] showed a Ki of 92 nM. Regarding `O=S(=O)(c1nc2n(n1)[C@H](c1cccc(Cl)c1F)C[C@@H]2F)[C@H]1C[C@@H]1F` [Example 219, (5S,7S)-5-(3-chloro-2-fluoro-phenyl)-7-fluoro-2-[(1S,2S)-2-fluorocyclopropyl]sulfonyl-6,7-dihydro-5H-pyrrolo[1,2-b][1,2,4]triazole], the Ki was 25 nM. The result for `[O-][S@+](CF)c1nc2n(n1)[C@H](c1ccccc1F)C[C@@H]2F` (single isomer, unassigned) [Example 75] reads 140 nM. In turn, `[O-][S@@+](c1nc2n(n1)[C@H](c1cccc(F)c1)C[C@@H]2F)C(F)F` (single isomer, unassigned) [Example 179] displayed a Ki of 210 nM.

On to `[O-][S+](Cc1ccccn1)c1nc2n(n1)[C@H](c1ccccc1)C[C@@H]2F` (stereo partly drawn) [Example 147, (5S,7S)-7-fluoro-5-phenyl-2-((pyridin-2-ylmethyl)sulfinyl)-6,7-dihydro-5H-pyrrolo[1,2-b][1,2,4]triazole], for which the Ki is 140 nM. In turn, `[O-][S+](c1nc2n(n1)C(c1ccccc1)CC2)C(F)(F)c1ccccc1` (stereo not shown) [Example 5, 2-[difluoro(phenyl)methyl]sulfinyl-5-phenyl-6,7-dihydro-5H-pyrrolo[1,2-b][1,2,4]triazole] yielded a Ki of 548 nM.

`O=S(=O)(c1nc2n(n1)[C@H](c1ccc(F)cc1)C[C@@H]2F)C1CC1F` (stereo in doubt) [Example 197, (5S,7S)-7-fluoro-5-(4-fluorophenyl)-2-[(1R,2R)-2-fluorocyclopropyl]sulfonyl-6,7-dihydro-5H-pyrrolo[1,2-b][1,2,4]triazole] yielded a Ki of 8 nM. In the case of `O=S(=O)(c1nc2n(n1)[C@H](c1ccc(F)c(F)c1)C[C@@H]2F)[C@@H]1C[C@H]1F` (single isomer, unassigned) [Example 144], the Ki came out at 9 nM.

Consider `O=S(=O)(c1nc2n(n1)[C@H](c1cccc(F)c1F)C[C@@H]2F)C(F)(F)F` (single isomer, unassigned) [Example 136], for which the Ki is less than 5 nM. The result for `[O-][S+](c1nc2n(n1)[C@H](c1ccccc1)C[C@@H]2F)C1CC(F)(F)C1` (stereo partly drawn) [Example 49, (5S,7S)-2-(3,3-difluorocyclobutyl)sulfinyl-7-fluoro-5-phenyl-6,7-dihydro-5H-pyrrolo[1,2-b][1,2,4]triazole] reads 12 nM. In turn, `O=S(=O)(c1nc2n(n1)[C@H](c1ccccc1)C[C@@H]2F)[C@@H]1CC1(F)F` (single isomer, unassigned) [Example 131] displayed a Ki of 4 nM. For `CC(C)(C)[S@@+]([O-])c1nc2n(n1)[C@H](c1ccccc1)C[C@@H]2F` (single isomer, unassigned) [Example 191], the Ki stood at 5 nM. On to `CC(C)(F)S(=O)(=O)c1nc2n(n1)[C@H](c1ccccc1)C[C@@H]2F` (single isomer, unassigned) [Example 165], for which the Ki was 25 nM. In turn, `[O-][S@@+](CC1CC1)c1nc2n(n1)[C@H](c1ccccc1)C[C@@H]2F` (single isomer, unassigned) [Example 186] returned a Ki of 20 nM. Compound `CC(C)[S@@+]([O-])c1nc2n(n1)[C@H](c1ccccc1)C[C@@H]2F` (single isomer, unassigned) [Example 187] showed a Ki of 8 nM. The result for `[O-][S@@+](c1nc2n(n1)[C@H](c1ccccc1)C[C@@H]2F)C(F)(F)F` (single isomer, unassigned) [Example 180] reads 300 nM; that for `O=S(=O)(c1nc2n(n1)[C@H](c1cc(F)cc(Cl)c1)C[C@@H]2F)C1CC1F` (stereo in doubt) [Example 200, (5S,7S)-5-(3-chloro-5-fluoro-phenyl)-7-fluoro-2-[(1R,2R)-2-fluorocyclopropyl]sulfonyl-6,7-dihydro-5H-pyrrolo[1,2-b][1,2,4]triazole], 48 nM.

Regarding `O=S(=O)(c1nc2n(n1)[C@H](c1ccccc1)C[C@@H]2F)C(F)(F)F` (single isomer, unassigned) [Example 137], the Ki was determined as 4 nM. For the compound `CCS(=O)(=O)c1nc2n(n1)[C@H](c1ccccc1F)CC2` (single isomer, unassigned) [Example 8], the Ki was 290 nM.
